According to US20150173358A1, “HERBICIDAL COMPOSITIONS CONTAINING IMAZAPIC, AMINOPYRALID AND OPTIONALLY METSULFURON” (DOW AGROSCIENCES LLC, priority 2013, published 2015):

Test system: BOIVE: whitehead broom (Borerria verticillata)
Assay: Postemergence herbicidal activity of mixtures in the field (visual weed control)
Assay type: in vivo
Protocol: Field trials were conducted in Brazil in pasture area cultivated with Brachiaria brizantha using standard herbicide small-plot research methodology. The plot size used was 3×8 meter (m; width×length) with 4 replicates per treatment. The pasture was grown using normal cultural practices for fertilization, management, and maintenance to ensure good growth of the crop and the weeds.
All treatments in the field trials were applied using a carbon dioxide (CO2) backpack air sprayer with flat fan nozzles (110.03°), calibrated to apply 250 liters per hectare (L/ha) spray volume at approximately 35 pounds per square inch (PSI). Formulations of aminopyralid (triisopropanolammonium salt) at 100 grams acid equivalent per hectare (g ae/ha) and aminopyralid (potassium salt, 525grams acid equivalent per kilogram (g ae/kg))+metsulfuron-methyl (94.5 grams active ingredient per kilogram (g ai/kg)) at 118 grams per hectare (g/ha) were mixed with imazapic at 70 and 140 g ae/ha and water+Joint Mineral Oil at appropriate formulated product rates to achieve the desired rates based on a unit area of application (hectare) as shown. Treatments were rated at 15 to 281 days after application (DAA) as compared to the untreated control plants. Visual weed control of BOIVE was scored on a scale of 0 to 100 percent where 0 corresponds to no injury and 100 corresponds to complete kill.
All treatment results, both for the single product and mixtures, are an average of 3 to 4 replicates and the tank-mix interactions are significant at the […] level.
Colby's equation was used to determine the herbicidal effects expected from the mixtures (Colby, S.R. Calculation of the synergistic and antagonistic response of herbicide combinations. Weeds 1967, 15, 20-22). […]
The experiments described herein in Table 2 were performed such that the “B” component in Colby's equation was the activity for the combination of aminopyralid and metsulfuron and only the activity for the combination was determined. […]

Cc1cnc(C2=NC(C)(C(C)C)C(=O)N2)c(C(=O)O)c1 (racemic) [Imazapic, (±)-2-[4,5-dihydro-4-methyl-4-(1-methylethyl)-5-oxo-1H-imidazol-2-yl]-5-methyl-3-pyridinecarboxylic acid]
% Visual Control BOIVE (281 DAA) Obs (Imazapic (ammonium salt) 70 g ae/ha alone, postemergence field trial, Brazil pasture): 0%
% Visual Control BOIVE (281 DAA) Obs (Imazapic (ammonium salt) 140 g ae/ha alone, postemergence field trial): 14%

Nc1cc(Cl)nc(C(=O)O)c1Cl [Aminopyralid, 4-amino-3,6-dichloro-2-pyridinecarboxylic acid]
% Visual Control BOIVE (281 DAA) Obs (Aminopyralid (triisopropanolammonium salt) 100 g ae/ha alone): 41%
